Columns and labels:
Test in all cases: relative viability (nuclei count vs DMSO), 5 days (fraction); higher = more cells survive
[1] = compound: N#CC[C@H](C1CCCC1)n1cc(-c2ncnc3[nH]ccc23)cn1 [Ruxolitinib] + CC(=O)Nc1cccc(-n2c(=O)n(C3CC3)c(=O)c3c(Nc4ccc(I)cc4F)n(C)c(=O)c(C)c32)c1 [Trametinib] (partner 0.02 µM)
Outline: (§1)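 Five library-drug doses in √10 steps were combined with a fixed anchor-drug dose, or a single drug was given alone, by pin tool to lung cancer cell lines in 1536-well plates the day after seeding. Nuclei were stained and counted after 5 days. Relative viability is the nuclei count in treated wells over that in vehicle wells, taken as the median of duplicate plates.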

[2] = compound: CS(=O)(=O)c1ccc(C(=O)Nc2ccc(Cl)c(-c3ccccn3)c2)c(Cl)c1 [Vismodegib] + Cc1nc(Nc2ncc(C(=O)Nc3c(C)cccc3Cl)s2)cc(N2CCN(CCO)CC2)n1 [Dasatinib] (partner 0.075 µM)
Outline: as §1

[3] = compound: N#CC[C@H](C1CCCC1)n1cc(-c2ncnc3[nH]ccc23)cn1 [Ruxolitinib] + CC(C)C[C@H](NC(=O)[C@H](Cc1ccccc1)NC(=O)c1cnccn1)B(O)O [Bortezomib] (partner 0.002 µM)
Outline: as §1

[4] = compound: CS(=O)(=O)c1ccc(-c2cnc(N)c(C(=O)Nc3ccccc3)n2)cc1 [VE-821] + Nc1ncn([C@H]2C[C@H](O)[C@@H](CO)O2)c(=O)n1 [Decitabine] (partner 2 µM)
Outline: as §1

| Cell Line | relative viability ([1]; first compound 0.08 µM) | relative viability ([1]; first compound 0.253 µM) | relative viability ([1]; first compound 0.8 µM) | relative viability ([1]; first compound 2.53 µM) | relative viability ([1]; first compound 8 µM) | relative viability ([2]; first compound 0.08 µM) | relative viability ([2]; first compound 0.253 µM) | relative viability ([2]; first compound 0.8 µM) | relative viability ([2]; first compound 2.53 µM) | relative viability ([2]; first compound 8 µM) | relative viability ([3]; first compound 0.08 µM) | relative viability ([3]; first compound 0.253 µM) | relative viability ([3]; first compound 0.8 µM) | relative viability ([3]; first compound 2.53 µM) | relative viability ([3]; first compound 8 µM) | relative viability ([4]; first compound 0.08 µM) | relative viability ([4]; first compound 0.253 µM) | relative viability ([4]; first compound 0.8 µM) | relative viability ([4]; first compound 2.53 µM) | relative viability ([4]; first compound 8 µM) |
| --- | --- | --- | --- | --- | --- | --- | --- | --- | --- | --- | --- | --- | --- | --- | --- | --- | --- | --- | --- | --- |
| NCI-H1975 | 0.277 | 0.432 | 0.412 | 0.269 | 0.152 | 0.347 | 0.338 | 0.371 | 0.267 | 0.348 | 0.415 | 0.382 | 0.482 | 0.303 | 0.316 | 0.4 | 0.38 | 0.358 | 0.381 | 0.324 |
| NCI-H727 | 0.406 | 0.407 | 0.413 | 0.416 | 0.453 | 0.307 | 0.345 | 0.342 | 0.308 | 0.364 | 0.997 | 0.845 | 1.14 | 0.941 | 1.07 | 0.865 | 0.799 | 0.952 | 0.916 | 0.751 |
| NCI-H441 | 0.478 | 0.373 | 0.572 | 0.415 | 0.513 | 0.671 | 0.444 | 0.502 | 0.558 | 0.433 | 0.545 | 0.448 | 0.557 | 0.456 | 0.397 | 0.305 | 0.271 | 0.226 | 0.258 | 0.271 |
| RERF-LC-KJ | 0.797 | 0.978 | 0.939 | 0.834 | 0.906 | 0.779 | 0.676 | 0.75 | 0.758 | 0.768 | 1.09 | 1.11 | 1.2 | 1 | 0.986 | 0.731 | 0.681 | 0.633 | 0.725 | 0.609 |
| NCI-H838 | 0.554 | 0.44 | 0.477 | 0.217 | 0.185 | 0.213 | 0.275 | 0.303 | 0.285 | 0.319 | 0.875 | 0.652 | 0.887 | 0.398 | 0.342 | 0.461 | 0.488 | 0.564 | 0.559 | 0.456 |

— the supplement of paper PMC10307832
